The values below come from US20250281413A1, “PHARMACEUTICAL COMPOSITION” (Novartis AG, priority 2021, published 2025).

Common to all, as to format: physicochemical
Data set [1] is described as follows: Particle size of wet-media milled suspension by Photon Correlation Spectroscopy (PCS). To be noted: Example 7. An excerpt:
The following examples illustrate the invention and provide support for the disclosure of the present invention without limiting the scope of the invention. • Analytical Centrifugation (AC), e.g., LUMiSizer, LUM GmbH Germany, SEPView 6.1.2570.2022. Wet dispersion method using purified water solution for dilution of suspension to appropriate attenuation level with about 10 to 70% transmission of first measurement profile. The reported results for X10, X50, X90 are intensity weighted. • Photon Correlation Spectroscopy (PCS), e.g., Zetasizer Nano ZS, Malver Panalytical Ltd., UK, Version 7.3. Wet dispersion method using 0.1 mM NaCl solution (in purified water) for dilution of suspension to appropriate attenuation level with about 2 to 9 attenuator index. The reported results for Xmean are intensity weighted. In particular, the attenuator index is 5. Preferably, the measurement is carried at 25° C. […]

The nature of data set [2]: pH dependent solubility of Compound (A).
The nature of data set [3]: Dissolution rate of capsules filled with granule particles (paddle 50 rpm). To be noted: pH 3, 50 mg dose in 900 mL. As for the experimental part:
Variant P7 was selected as the optimized granule composition in terms of copovidone and SLS ratio, thus the amount to be sprayed on the inert substrate (carrier particle) allow a drug load of 20%, based on the total weight of the granule particle, in a reasonable processing time. The dissolution performance of the different variant of granule particle compositions was evaluated to ensure the dissolution profile was in a good range. The dissolution rate is measured by conventional method (paddle method according to Pharm. Eur. 2.9.3 “Dissolution Test for Solid Dosage Forms” or US Pharmacopeia <711> “Dissolution” or Japanese Pharmacopiea <6.10> “Dissolution Test), as it can be seen in FIG. 1 and FIG. 2, by adding the granule particles prepared as mentioned in Table 1 into capsules (e.g. hard gelatin capsule). […] Some of the tested capsules comprising the above mentioned granule particles, the disintegration and dispersion of the content was delayed, leading to a delayed dissolution rate (DR) profile at paddle 50 rpm. […]
In order to have a better understanding of the formulation/pH profile, the dissolution rate profiles of the formulations described in Table 2 and Table 3 were measured at pH 2, pH 3, pH 4.5 and pH 6.8. […]

≈ marks a conversion by molar mass, not a printed value.

As usually defined, the solubility is the concentration that dissolves in the medium under given conditions. In the case of `C=CC(=O)N(C)CCOc1c(N)ncnc1-c1cc(F)cc(NC(=O)c2ccc(C3CC3)cc2F)c1C` [Compound (A), N-(3-(6-amino-5-(2-(N-methylacrylamido)ethoxy)pyrimidin-4-yl)-5-fluoro-2-methylphenyl)-4-cyclopropyl-2-fluorobenzamide], the “particle size of the DS in wet media milled before dilution for spray granulation” value in data set [1] came to 123 nm. The “Biopharmaceutics classification system Class” value in data set [2] is listed as “Class 2”. Also, the solubility is 3000 µg/mL (≈ 5910 µM) in data set [2] (pH 1.2, simulated gastric fluid); 300 µg/mL (≈ 591 µM) in data set [2] (pH 2, simulated gastric fluid); 3 µg/mL (≈ 5.91 µM) in data set [2] (pH 3, aqueous buffer). In addition, the “percent of dose dissolved at plateau” value in data set [3] is listed as 90%.
